In the CheMixHub viscosity set:
Values joined by “and” are separate entries in the source; they are usually repeats but may differ in a detail not shown here. Equal entries are not always repeated.

Assay: xn = mol fraction of the nth substance listed

CCCCCCCCCCCC(=O)OCC + CCC1CCCCC1
viscosity [mPa·s], 100 kPa
Conditions	x2 = 0.1001	x2 = 0.1999	x2 = 0.3	x2 = 0.3999	x2 = 0.5001	x2 = 0.5999	x2 = 0.7	x2 = 0.7999	x2 = 0.9
293.15 K	3.07	2.768	2.476	2.193	1.919	1.663	1.429	1.219	1.023
298.15 K	2.752	2.485	2.228	1.977	1.742	1.519	1.318	1.134	0.963
303.15 K	2.479	2.251	2.027	1.808	1.597	1.402	1.222	1.057	0.901
308.15 K	2.232	2.036	1.841	1.651	1.468	1.296	1.131	0.981	0.837
313.15 K	2.033	1.86	1.686	1.516	1.352	1.197	1.05	0.913	0.786
318.15 K	1.87	1.716	1.561	1.406	1.258	1.119	0.987	0.864	0.745
323.15 K	1.697	1.562	1.423	1.289	1.159	1.036	0.92	0.81	0.7

CCN(CC)c1ccccc1 + CCCCCCCCO
viscosity [mPa·s], 100 kPa
Conditions	x1 = 0.1141	x1 = 0.2548	x1 = 0.3537	x1 = 0.4726	x1 = 0.5725	x1 = 0.6945	x1 = 0.7795	x1 = 0.8584	x1 = 0.9317
303.15 K	5.389	4.382	3.806	3.235	2.842	2.446	2.212	2.016	1.847
308.15 K	4.42	3.49	2.987	2.519	2.221	1.947	1.8	1.684	1.587
313.15 K	3.684	2.854	2.428	2.056	1.837	1.653	1.56	1.487	1.421
318.15 K	3.135	2.356	1.976	1.667	1.503	–	1.339	1.305	1.271

ClCCCCl + CC(C)CO
viscosity [mPa·s], 101 kPa
Conditions	x1 = 0.0989	x1 = 0.2041	x1 = 0.3021	x1 = 0.3988	x1 = 0.5019	x1 = 0.602	x1 = 0.704	x1 = 0.8027	x1 = 0.8982
298.15 K	2.523	1.948	1.604	1.373	1.194	1.078	1.001	0.9476	0.9412
313.15 K	1.637	1.327	1.127	1.001	0.8964	0.8306	0.789	0.7599	0.7565

CC1(C)OC1C#N (configuration not stated) + ClC(Cl)(Cl)Cl
viscosity [mPa·s], 101 kPa
Conditions	293.15 K	298.15 K	303.15 K	313.15 K	323.15 K
x1 = 0.009	0.983	0.938	0.906	0.779	0.67
x1 = 0.087	0.98	0.937	0.877	0.754	0.675

CCCC[NH3+].O=[N+]([O-])[O-] + CCCO
Conditions	viscosity [mPa·s]
293.15 K, 101 kPa, x1 = 0.9008	83.35

CCCCCCCCCCCCCC[P+](CCCCCC)(CCCCCC)CCCCCC.c1ccc2[n-]cnc2c1 + O=C=O
Conditions	viscosity [mPa·s]
298.15 K, 100 kPa, x2 = 0.545	388

Cc1ccc(C(C)C)c(O)c1 + CCCCCCCCCCCCCCCC(=O)O
100 kPa, x2 = 0.2
Conditions	viscosity [mPa·s]
313.15 K	9.21
318.15 K	7.54
323.15 K	6.29

Cc1ccc(C(C)C)c(O)c1 + CCCCCCCCCCCC(=O)O
100 kPa, x2 = 0.45
Conditions	viscosity [mPa·s]
303.15 K	12.43
308.15 K	10.12
313.15 K	8.37
318.15 K	7.01
323.15 K	5.95

O=[N+]([O-])[O-].O=[N+]([O-])[O-].O=[N+]([O-])[O-].[Y+3] + O
viscosity [mPa·s], 101.3 kPa
Conditions	x1 = 0.008908	x1 = 0.01764	x1 = 0.02626	x1 = 0.03447	x1 = 0.05042	x1 = 0.06636	x1 = 0.08199
293.15 K	1.335	1.809	2.474	3.484	7.18	15.24	33.5
298.15 K	1.191	1.61	2.197	3.056	6.164	12.8	26.72
308.15 K	0.9655	1.305	1.765	2.405	4.677	8.991	18.14

Cc1ccc(C(C)C)c(O)c1 + CC12CCC(CC1)C(C)(C)O2
viscosity [mPa·s], 101.33 kPa
Conditions	x1 = 0.5865	x1 = 0.6068	x1 = 0.6272	x1 = 0.6462	x1 = 0.6661	x1 = 0.6858	x1 = 0.7057
293.15 K	43.71	45.56	46.15	46.86	46.28	45.95	44.22
298.15 K	29.92	30.8	31.35	31.41	31.27	30.92	29.82

CCCN(CCC)CCC + CCCCO
303.15 K, 101 kPa
Conditions	viscosity [mPa·s]
x1 = 0.01186	2.225
x1 = 0.01943	2.201
x1 = 0.03035	2.178
x1 = 0.03999	2.157
x1 = 0.05088	2.133
x1 = 0.0617	2.112
x1 = 0.07408	2.085
x1 = 0.08019	2.074
x1 = 0.08635	2.059

CC[n+]1ccn(C)c1.NCC(=O)[O-] + CCn1cc[n+](C)c1.N#C[C-](C#N)C#N
Conditions	viscosity [mPa·s]
313.15 K, 101 kPa, x2 = 0.5001	22.25

CC(N)C(=O)O (configuration not stated) + O
viscosity, 101 kPa
Conditions	x1 = 0.0004	x1 = 0.0007	x1 = 0.001	x1 = 0.0018	x1 = 0.0022	x1 = 0.0025	x1 = 0.0029	x1 = 0.0032	x1 = 0.0036
293.15 K	1.006 mPa·s	1.012 mPa·s	1.017 mPa·s and 1.022 mPa·s	–	–	1.038 mPa·s	1.043 mPa·s	–	–
298.15 K	0.8956 mPa·s	0.9003 mPa·s	0.9054 mPa·s	0.915 mPa·s	0.9199 mPa·s	0.9246 mPa·s	0.929 mPa·s	0.934 mPa·s	0.9389 mPa·s
303.15 K	0.8028 mPa·s	0.8077 mPa·s	0.8122 mPa·s	0.8213 mPa·s	0.8256 mPa·s	0.8299 mPa·s	0.8341 mPa·s	0.8382 mPa·s	0.8429 mPa·s
308.15 K	0.7254 mPa·s	0.7303 mPa·s	0.7349 mPa·s	0.7436 mPa·s	0.7478 mPa·s	0.7519 mPa·s	0.7558 mPa·s	0.7599 mPa·s	0.7635 mPa·s
313.15 K	0.6592 mPa·s	0.6641 mPa·s	0.6726 mPa·s	0.6767 mPa·s	0.6804 mPa·s	–	0.688 mPa·s	0.6916 mPa·s	0.6953 mPa·s

Nc1ccn([C@@H]2O[C@H](CO)C(O)C2O)c(=O)n1 (some centres not stated) + O
viscosity [mPa·s], 101.3 kPa
Conditions	293.15 K	298.15 K	303.15 K	308.15 K	313.15 K	318.15 K
x1 = 0.0001861	–	0.895	–	0.723	–	0.6
x1 = 0.000263	1.008	0.897	0.809	0.74	0.625	–
x1 = 0.000342	1.009	0.898	0.81	0.741	0.626	–
x1 = 0.0003829	–	0.899	–	0.727	–	0.603
x1 = 0.000448	1.012	0.901	0.813	0.744	0.628	–
x1 = 0.000537	1.014	0.903	0.815	0.746	0.63	–
x1 = 0.0005621	–	0.903	–	0.73	–	0.606
x1 = 0.000632	1.016	0.905	0.817	0.748	0.632	–
x1 = 0.000689	–	0.906	–	0.733	–	0.608
x1 = 0.000722	1.018	0.907	0.819	0.75	0.634	–
x1 = 0.0007525	–	0.907	–	0.734	–	0.609
x1 = 0.0007845	–	0.909	–	0.735	–	0.609

CCCCC(CC)COC(C)=O (configuration not stated) + CCCCCO
viscosity [mPa·s], 101.33 kPa
Conditions	x1 = 0.1041	x1 = 0.2073	x1 = 0.3002	x1 = 0.4211	x1 = 0.4987	x1 = 0.6	x1 = 0.7008	x1 = 0.8092	x1 = 0.9033
293.15 K	3.692	3.321	3.019	2.666	2.462	2.219	2	1.79	1.625
303.15 K	2.68	2.451	2.262	2.037	1.905	1.745	1.599	1.456	1.342
313.15 K	2.119	1.955	1.818	1.653	1.556	1.437	1.328	1.22	1.134
323.15 K	1.255	1.209	1.169	1.119	1.087	1.048	1.01	0.971	0.938

CCCCCCCCCCN + C1CCCCC1
303.15 K, 101 kPa
Conditions	viscosity [mPa·s]
x2 = 0.2056	1.562
x2 = 0.3987	1.361
x2 = 0.5065	1.239
x2 = 0.5875	1.159
x2 = 0.7947	0.9708

CC(O)CN1CC[NH+](CC(C)O)CC1.CC(O)CN1CC[NH+](CC(C)O)CC1.O=S(=O)([O-])[O-] (configuration not stated) + O
viscosity [mPa·s], 101 kPa
Conditions	298.15 K	303.15 K	308.15 K	313.15 K	318.15 K	323.15 K
x1 = 0.0024	1.1	0.975	0.869	0.816	0.721	0.665
x1 = 0.00505	1.382	1.232	1.111	1.026	0.906	0.807
x1 = 0.00812	1.834	1.634	1.434	1.355	1.176	1.025
x1 = 0.0117	2.454	2.221	1.934	1.739	1.513	1.311
x1 = 0.0158	3.565	3.115	2.653	2.327	2.009	1.727
x1 = 0.0208	5.31	4.49	3.747	3.216	2.675	2.282

ClCCCCl + CCCCO
viscosity [mPa·s], 101 kPa
Conditions	x1 = 0.0958	x1 = 0.2016	x1 = 0.3004	x1 = 0.3983	x1 = 0.5002	x1 = 0.5993	x1 = 0.6997	x1 = 0.7997	x1 = 0.9
298.15 K	2.139	1.773	1.512	1.32	1.177	1.071	0.9963	0.9461	0.9256
313.15 K	1.488	1.261	1.101	0.9831	0.8935	0.8317	0.7876	0.76	0.7528

CCCCCCCCCCCC(=O)OCC + CCCO
viscosity [mPa·s], 101.33 kPa
Conditions	x2 = 0.1001	x2 = 0.2003	x2 = 0.3	x2 = 0.3999	x2 = 0.5	x2 = 0.5999	x2 = 0.7	x2 = 0.8	x2 = 0.9
293.15 K	3.214	3.059	2.924	2.798	2.671	2.547	2.426	2.307	2.215
298.15 K	2.875	2.742	2.62	2.504	2.398	2.286	2.175	2.078	1.997
303.15 K	2.579	2.464	2.353	2.252	2.15	2.052	1.956	1.869	1.786
308.15 K	2.32	2.218	2.12	2.025	1.936	1.845	1.756	1.674	1.6
313.15 K	2.108	2.013	1.919	1.833	1.749	1.669	1.59	1.513	1.44
318.15 K	1.935	1.849	1.767	1.688	1.609	1.531	1.454	1.381	1.315
323.15 K	1.748	1.67	1.595	1.522	1.451	1.382	1.315	1.251	1.188
